Assay results taken from patent publication US7820683B2, “4-(1H-indazol-5-yl-amino)-quinazoline compounds as erbB receptor tyrosine kinase inhibitors for the treatment of cancer” (AstraZeneca AB, priority 2005, dated 2010).
pIC50: −log10 of the molar value.

Tests used:
EGFR tyrosine kinase = target: T1, EGFR tyrosine kinase (Homo sapiens, UniProt P00533); assay: Protein tyrosine kinase phosphorylation assay, Test (a), EGFR; format: biochemical; details: recombinant intracellular fragment, ATP at Km; read-out: IC50 Test (a): Inhibition of EGFR tyrosine kinase protein phosphorylation
T1 construct: Recombinant intracellular fragments of EGFR, erbB2 and erbB4; made in house; host or cells: baculovirus/Sf21 insect cells (cleared lysate used)
T1 sequence (P00533 669-1210 limits assumed): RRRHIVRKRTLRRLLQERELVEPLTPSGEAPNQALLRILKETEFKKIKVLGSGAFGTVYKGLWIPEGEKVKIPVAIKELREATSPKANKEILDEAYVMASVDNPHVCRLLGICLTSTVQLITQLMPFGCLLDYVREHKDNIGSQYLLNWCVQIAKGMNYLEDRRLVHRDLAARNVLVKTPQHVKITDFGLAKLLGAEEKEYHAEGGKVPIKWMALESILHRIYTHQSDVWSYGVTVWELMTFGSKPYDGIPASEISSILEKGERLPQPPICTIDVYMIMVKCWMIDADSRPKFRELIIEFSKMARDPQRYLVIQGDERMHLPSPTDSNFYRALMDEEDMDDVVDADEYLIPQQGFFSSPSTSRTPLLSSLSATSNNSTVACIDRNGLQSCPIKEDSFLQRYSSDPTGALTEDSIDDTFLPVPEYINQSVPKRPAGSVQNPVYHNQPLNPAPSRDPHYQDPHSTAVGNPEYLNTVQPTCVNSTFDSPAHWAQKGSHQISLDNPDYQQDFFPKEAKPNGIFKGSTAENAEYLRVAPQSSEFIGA
Method: (§1) This test measures the ability of a test compound to inhibit the phosphorylation of a tyrosine containing polypeptide substrate by EGFR, erbB2 and erbB4 tyrosine kinase enzyme.
(§2) Recombinant intracellular fragments of EGFR, erbB2 and erbB4 (accession numbers X00588, X03363 and L07868 respectively) were cloned and expressed in the baculovirus/Sf21 system. Lysates were prepared from these cells by treatment with ice-cold lysis buffer (20 mM N-2-hydroxyethylpiperizine-N′-2-ethanesulfonic acid (HEPES) pH7.5, 150 mM NaCl, 10% glycerol, 1% Triton X-100, 1.5 mM MgCl2, 1 mM ethylene glycol-bis(β-aminoethyl ether) N′,N′,N′,N′-tetraacetic acid (EGTA), plus protease inhibitors and then cleared by centrifugation.
(§3) Constitutive kinase activity of these recombinant proteins was determined by their ability to phosphorylate a synthetic peptide (made up of a random co-polymer of Glutamic Acid, Alanine and Tyrosine in the ratio of 6:3:1). […]
(§4) The immobilised phospho-peptide product of the reaction was detected by immunological methods. […]
(§5) Kinase inhibition for a given compound was expressed as an IC50 value. […] The range of phosphorylation was calculated from the positive (vehicle plus ATP) and negative (vehicle minus ATP) control values.

erbB2 tyrosine kinase = target: T2, erbB2 tyrosine kinase (Homo sapiens, UniProt P04626); assay: Protein tyrosine kinase phosphorylation assay, Test (a), erbB2; format: biochemical; details: recombinant intracellular fragment, ATP at Km; read-out: IC50 Test (a): Inhibition of erbB2 tyrosine kinase protein phosphorylation
T2 construct: Recombinant intracellular fragments of EGFR, erbB2 and erbB4; made in house; host or cells: baculovirus/Sf21 insect cells (cleared lysate used)
T2 sequence (P04626 676-1255 limits assumed): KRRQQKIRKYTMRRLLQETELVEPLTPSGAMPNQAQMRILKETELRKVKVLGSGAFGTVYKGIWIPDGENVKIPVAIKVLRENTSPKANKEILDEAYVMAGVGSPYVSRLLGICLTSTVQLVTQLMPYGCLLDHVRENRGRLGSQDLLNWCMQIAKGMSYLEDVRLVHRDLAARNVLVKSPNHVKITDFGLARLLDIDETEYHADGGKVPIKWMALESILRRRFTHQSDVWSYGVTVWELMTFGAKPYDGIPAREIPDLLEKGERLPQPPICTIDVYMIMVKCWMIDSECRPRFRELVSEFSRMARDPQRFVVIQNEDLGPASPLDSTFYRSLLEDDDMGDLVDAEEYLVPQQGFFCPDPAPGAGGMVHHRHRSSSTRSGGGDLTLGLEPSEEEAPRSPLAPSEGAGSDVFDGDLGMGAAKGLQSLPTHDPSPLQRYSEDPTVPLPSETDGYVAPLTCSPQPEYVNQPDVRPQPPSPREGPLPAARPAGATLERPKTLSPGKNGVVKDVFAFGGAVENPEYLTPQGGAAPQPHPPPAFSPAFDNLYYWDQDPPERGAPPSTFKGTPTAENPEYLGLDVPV
Method: as §1, §2, §3, §4, §5

[1] = test system: phosphorylation of erbB2 in a MCF7 derived cell line (Clone 24 cells); assay: Clone 24 phospho-erbB2 cell assay, Test (c); format: cell-based; details: Homo sapiens; MCF7 derived Clone 24 cells, 4 hours; read-out: IC50 Test (c): Inhibition of erbB2 tyrosine kinase protein phosphorylation
Method: This immunofluorescence end point assay measures the ability of a test compound to inhibit the phosphorylation of erbB2 in a MCF7 (breast carcinoma) derived cell line which was generated by transfecting MCF7 cells with the full length erbB2 gene using standard methods to give a cell line that overexpresses full length wild type erbB2 protein (hereinafter ‘Clone 24’ cells).
Clone 24 cells were cultured in Growth Medium (phenol red free Dulbecco's modified Eagle's medium (DMEM) containing 10% foetal bovine serum, 2 mM glutamine and 1.2 mg/ml G418) in a 7.5% CO2 air incubator at 37° C. […] Cell density was measured using a haemocytometer and viability was calculated using Trypan Blue solution before being further diluted in Growth Medium and seeded at a density of 1×10^4 cells per well (in 100 ul) into clear bottomed 96 well plates (Packard, No. 6005182). […]
Immunostaining was performed at room temperature. […] Plates were analysed within six hours of completing the immunostaining.
The Fluorescence signal is each well was measured using an Acumen Explorer Instrument (Acumen Bioscience Ltd.), a plate reader that can be used to rapidly quantitate features of images generated by laser-scanning. […]

pIC50 (EGFR tyrosine kinase) | pIC50 (erbB2 tyrosine kinase) | pIC50 [1] | SMILES
6.68 | 7.92 |  | C[C@@H](Oc1cccc2ncnc(Nc3ccc4c(cnn4Cc4ccccn4)c3)c12)C(=O)N(C)CCO [Example 1, (2R)—N-(2-Hydroxyethyl)-N-methyl-2-[(4-{[1-(pyridin-2-ylmethyl)-1H-indazol-5-yl]amino}quinazolin-5-yl)oxy]propanamide]
 |  | 7.46 | C[C@@H](Oc1cccc2ncnc(Nc3ccc4c(cnn4Cc4ccccn4)c3)c12)C(=O)N1CCOCC1 [Example 2, 5-[(1R)-1-Methyl-2-morpholin-4-yl-2-oxoethoxy]-N-[1-(pyridin-2-ylmethyl)-1H-indazol-5-yl]quinazolin-4-amine]
